Results reported in US20220273617A1, “ANTI-CANCER, ANTI-INFLAMMATORY AND IMMUNOMODULATORY ACTIVITY OF R-CARVEDILOL AND METHODS OF USE” (priority 2021, published 2022).
Entries after “also recorded” stand apart in the source; their conditions may differ.

Tests used:
[1] = test system: B(a)P-induced lung tumor; experiment: Long term B(a)P-induced lung carcinogenesis in A/J mice; type: in vivo; conditions: for tumor incidence: B(a)P only 100%
Procedure: To examine the chemopreventive efficacy of carvedilol, we used an established lung carcinogenesis model in A/J mice induced by B(a)P. Two drug doses were examined: 20 mg/kg (H) and 3.2 mg/kg (L). The mice were randomly divided by body weight into seven groups at the beginning of the experiments. To induce lung tumor, mice were given a single intraperitoneal (i.p.) injection of B(a)P at 100 mg/kg body weight in 0.2 ml tricaprylin. The following are treatment groups: (1) vehicle control, n=8; (2) B(a)P only, n=9; (3) B(a)P+gefitinib 400 mg/kg, weekly oral gavage, positive control, n=10; (4) B(a)P+carvedilol 20 mg/kg drinking water, n=9; (5) B(a)P+carvedilol 3.2 mg/kg drinking water, n=8; (6) B(a)P+R-carvedilol 20 mg/kg drinking water, n=9; (7) B(a)P+R-carvedilol 3.2 mg/kg drinking water, n=10. The mice began the drug treatments 3 weeks before B(a)P treatment and terminated at 23 weeks after B(a)P treatment. […] Tumor multiplicity was determined by counting surface tumors in fixed lung under a dissecting microscope. […] The tumor incidence for gefitinib group was 70%. The tumor incidence was 89% and 50% for high and low dose carvedilol, respectively. The tumor incidence was 67% and 70% for high and low dose R-carvedilol, respectively.

[2] = Systolic blood pressure of mice, noninvasive tail-cuff system; type: in vivo; conditions: 32 mg/kg/day
Procedure: SKH-1 mice were given racemic carvedilol or R-carvedilol in drinking water for two weeks (32 mg/kg/day). Blood pressure was examined in mice utilizing a Kent CODATM noninvasive tail-cuff system.

[3] = Ex vivo permeation across rat skin, Franz diffusion cells; type: in vitro ADME; conditions: for permeation: rat, 200 μg/mL
Procedure: Instead of nanoparticle-based topical delivery, the present inventors have explored other methods of skin delivery of drugs. They investigated the effects of natural penetration enhancers on the ex vivo permeation of carvedilol across rat skin. […] The drug formulations containing carvedilol or R-carvedilol (200 μg/mL) (1 mL) was loaded on Franz diffusion cells using excised rat dorsal skin (with hair removed). […] D-limonene is isolated from orange peel, and is a cheap and safe option to delivery carvedilol (same for R-carvedilol) for skin cancer prevention. D-limonene is present in many skin commercial products such as perfumes and essential oils. Therefore, this invention provides another novel approach of making skin targeting formulation for both carvedilol and R-carvedilol. This approach of making skin formulation is not only safe but also easier to scale up to industry level for making large amount.

[4] = test system: UV induced skin carcinogenesis; experiment: Chronic UV induced skin carcinogenesis model; type: in vivo, mice; conditions: for delay in tumor formation compared to UV only controls: topical, chronic UV
[5] = test system: UV-induced immunosuppression; experiment: UV-induced suppression of contact hypersensitivity (CHS) to DNFB; type: in vivo, SKH-1 hairless mice; conditions: single dose i.p. 2 h before UV 224 mJ/cm^2; carvedilol 1 and 10 mg/kg, R-carvedilol 10 mg/kg
Procedure: Mice were treated with NS398, CAR or R-CAR (L: 1 mg/kg; H: 10 mg/kg) i.p. 2 hr before UV exposure (224 mJ/cm^2). 24 h after, mice were sensitized with DNFB on back. After 7 days, the right ears were challenged with DNFB. 24 h after, 5 mm punch biopsies were obtained from both ears and weighed. The data are the mean±SE difference in ear biopsy weights (right-left) from n=5 mice (male). *: P<0.05; **: P<0.01.
The data listed are the mean±SE difference in ear biopsy weights (Right-Left) from n=5 mice (male). *: P<0.05; **:P<0.01.
Immunosuppression induced by UV radiation is commonly investigated using the contact hypersensitivity (CHS) response to contact allergens such as the hapten dinitrofluorobenzene (DNFB). […] Thus, carvedilol's skin cancer preventive activity may be partly attributed to its inhibitory effects on UV-induced immunosuppression.
The mice were pretreated with single dose of R-carvedilol (10 mg/kg, i.p.) two hours before UV radiation, and were subject to UV exposure. […] Thus, R-carvedilol, although not a β-blocker, similarly reverses UV-induced immunosuppression.
CHS assay was used to evaluate the effects of a topical delivery system of carvedilol developed by us, named “T-CAR”, on UV-induced immunosuppression. […]

[6] = test system: B16-F10 tumor; experiment: B16-F10 tumor bearing C57BL/6 mice; type: in vivo; conditions: topical daily
Procedure: Comparison of the efficacy of free drug and T-CAR (day 14). One day after tumor inoculation (two tumors per mouse, mice received free drug or T-CAR daily.
One day after tumor inoculation (one per mouse), mice received free drug or T-CAR daily, 200 μg RMP1-14 twice a week, or combination.
A: group 1, control; B: group 4, T-CAR+RMP1-14. Tumor collected at day 20 after inoculation.
Tumor collected at day 20 after inoculation.
The carvedilol loaded transfersome, T-CAR, was evaluated in vitro and in vivo on melanoma growth. […] To examine the in vivo activity of T-CAR, in C57BL/6 mice bearing the B16-F10 tumor, the T-CAR gel as a topical monotherapy was examined. The efficacy of T-CAR was compared with free drug dissolved in acetone in male mice bearing B16-F10 (two tumors inoculated in each mouse). […] Second study examined efficacy of topical T-CAR combined with anti-PD-1 (RMP1-14, 200 μg per mouse, i.p. twice per week) (one tumor was inoculated in each mouse).

[7] = test system: 4T1; experiment: Triple negative breast tumor 4T1 in BalB/C mice; type: in vivo; conditions: for tumor growth: 20 mg/kg/day in drinking water from two weeks before inoculation, monotherapy; for efficacy in combination with anti-PD-1 therapy: same 4T1 model, combined with anti-PD-1
Procedure: To investigate the effect of carvedilol and R-carvedilol on breast cancer growth, the BalB/C mice were treated with the drugs (20 mg/kg/day) in drinking water for two weeks before the mice were inoculated with murine triple negative breast tumor 4T1 in the fourth left mammary fat pad. […] The same experimental model was treated with carvedilol or R-carvedilol, in combination with the anti-PD-1 therapy.

[8] = test system: B(a)P-induced lung toxicity; experiment: Short term single dose B(a)P-induced lung toxicity in mice; type: in vivo, CD1/IGS mice; conditions: for plasma LDH levels / plasma MDA levels (LPO): B(a)P 125 mg/kg on day 7; for protection against B(a)P-induced histological changes and COX-2 expression: oral, compared with racemic carvedilol
Description: Chronic exposure to carcinogens that are present in tobacco smoking or air pollution is a well-known cause of lung cancer. One of the most important strategies to manage lung cancer is chemoprevention, which uses synthetic or natural products to block or reverse lung cancer initiation, promotion, and progression. Benzo(a)pyrene (B(a)P), a polycyclic aromatic hydrocarbon, is a pro-carcinogen ubiquitously present as pollutants in the environment. It is mostly produced during cigarette smoking and is present in automobile exhausts, and causes lung toxicity and lung cancer after metabolic activation. A single dose B(a)P-induced lung toxicity study in mice was used to evaluate the protective effects of carvedilol. In male CD1/IGS mice, carvedilol was orally administered (20 mg/kg body weight) once a day for 7 days. The mice were then treated with a single dose B(a)P via oral gavage (125 mg/kg body weight) on day 7, 30 min after the drug treatment. Mice were sacrificed 24 hours after B(a)P treatment. As expected, B(a)P increased the plasma levels of lactate dehydrogenase (LDH) and Malondialdehyde (MDA) for lipid peroxides (LPO).

[9] = orally administered; cited from earlier work
[10] = test system: JB6; conditions: among 16 β-blockers examined (Cleveland K H, 2019); cited from earlier work
[11] = Plasma concentration in mice given drug in drinking water; type: in vivo; conditions: 178 μg/mL in drinking water (32 mg/kg/day), 2 weeks, 95% CI in brackets
[12] = In vitro penetration and skin retention, Franz diffusion cells and porcine ear skin; type: in vitro ADME; conditions: Franz diffusion cells, porcine ear skin; free drug in water or PEG 400
Description: Thus, topical route has been investigated as a major approach in the application of R-carvedilol for clinical skin cancer prevention. In order to prepare for clinical studies, we prepared three types of transfersome-based formulation for R-carvedilol using different amount of phospholipid (soy phosphatidylcholine, SPC) or edge activator (tween-80). The particle sizes, zeta potential, encapsulation efficiency and stability for these transfersomes were very similar to those of T-CAR. […] This confirms that nano-transfersomes provide a promising delivery system for both carvedilol and R-carvedilol. Thus, this selected transfersomal formulation for R-carvedilol, named “T-RCAR”, will be further characterized in preclinical model systems and examined in clinical trials in the future.

[13] = test system: JB6; experiment: EGF-induced JB6 transformation; type: cell-based, mouse
[14] = test system: UV induced skin damage and inflammation; experiment: Acute UV induced skin damage and inflammation model; type: in vivo, mouse; conditions: topical 0.1, 1 or 10 μM in acetone immediately after single UV 300 mJ/cm^2
Procedure: In an acute UV induced skin damage and inflammation model induced with a single dose of UV (300 mJ/cm^2), topical treatment with R-carvedilol (0.1, 1 or 10 μM in acetone as a vehicle), applied immediately after the UV, attenuated mouse skin edema and reduced epidermal thickening, Ki-67 staining, COX-2 protein, IL-6 and IL-10 mRNA levels.

[15] = oral 1.6 mg/kg, mice; cited from earlier work
[16] = R-carvedilol alone, healthy human volunteers; cited from earlier work
[17] = oral 20 mg/kg once a day for 7 days
[18] = high dose 20 mg/kg drinking water
[19] = low dose 3.2 mg/kg drinking water

COc1cc2ncnc(Nc3ccc(F)c(Cl)c3)c2cc1OCCCN1CCOCC1 [gefitinib]
tumor incidence ([1]; 400 mg/kg weekly oral gavage, positive control): 70%

COc1ccccc1OCCNCC(O)COc1cccc2[nH]c3ccccc3c12 (racemic) [carvedilol]
mean systolic blood pressure ([2]; mouse, in vivo): statistically reduced mean systolic blood pressure
permeation [3]: 1.6 ± 0.25 µg
permeation ([3]; pH 7.4): 0.430 /−0.07 μg
delay in tumor formation compared to UV only controls [4]: 3 week
UV-induced CHS suppression [5]: reversed UV-induced suppression of CHS
tumor inhibition (total tumor volume) ([6]; 10 μM, day 14, two tumors per mouse, male mice): trend of tumor inhibition
tumor inhibition (total tumor volume) ([6]; free drug in acetone 100 μM (CAR H), day 14): less effective
tumor growth [7]: significantly reduced
efficacy in combination with anti-PD-1 therapy [7]: enhanced the efficacy of anti-PD-1 monotherapy
B(a)P-induced expression of COX-2 in lung (IHC) [8, 17]: attenuated
plasma LDH levels [8, 17]: significantly attenuated
plasma MDA levels (LPO) [8, 17]: significantly attenuated
B(a)P-induced lung morphological changes (histology) ([8]; oral 20 mg/kg once a day for 7 days, H&E): reduction in these morphological changes
tumor incidence [1, 18]: 89%
tumor incidence [1, 19]: 50%
tumor multiplicity ([1]; lower dose 3.2 mg/kg drinking water): significantly attenuated
bioavailability [9]: 24%
potency in preventing EGF-induced neoplastic transformation of mouse epidermal cells [10]: highest potency

COc1ccccc1OCCNC[C@@H](O)COc1cccc2[nH]c3ccccc3c12 [R-carvedilol]
mean systolic blood pressure ([2]; drinking water, 2 weeks, male SKH-1 mice): did not alter blood pressure
mean plasma concentration [11]: 25.13 ng/mL
skin permeation [12]: very little
skin retention [12]: very little
skin permeation ([3]; control formulation: PBS pH 7.4 with 40% v/v PEG 400): minimal
inhibitory effects on EGF-induced JB6 transformation [13]: nearly identical inhibitory effects
COX-2 protein [14]: reduced
IL-6 mRNA levels [14]: reduced
IL-10 mRNA levels [14]: reduced
Ki-67 staining [14]: reduced
epidermal thickening [14]: reduced
mouse skin edema [14]: attenuated
skin tumor development ([4]; topical 10 μM in acetone 30 min before UV): strongly inhibited skin tumor development
delay in tumor formation compared to UV only controls [4]: 5 week
UV-induced CHS suppression [5]: reversed UV-induced suppression of CHS; also recorded: significantly reversed UV-induced CHS suppression
tumor growth [7]: significantly reduced
efficacy in combination with anti-PD-1 therapy [7]: enhanced the efficacy of anti-PD-1 monotherapy
plasma LDH levels [8, 17]: significantly attenuated
plasma MDA levels (LPO) [8, 17]: significantly attenuated
protection against B(a)P-induced histological changes and COX-2 expression [8]: same degree of protection as the racemic carvedilol
tumor inhibition ([1]; 20 and 3.2 mg/kg drinking water): same trend of tumor inhibition as carvedilol
tumor incidence [1, 18]: 67%
tumor incidence [1, 19]: 70%
heart rate or blood pressure [15]: did not alter heart rate or blood pressure
adverse effects [16]: without major adverse effects

COc1ccccc1OCCNC[C@H](O)COc1cccc2[nH]c3ccccc3c12 [S-carvedilol]
inhibitory effects on EGF-induced JB6 transformation [13]: nearly identical inhibitory effects
plasma LDH levels [8, 17]: significantly attenuated
plasma MDA levels (LPO) [8, 17]: significantly attenuated
protection against B(a)P-induced histological changes and COX-2 expression [8]: same degree of protection as the racemic carvedilol
